Measured values from PMC8652888, “Angiogenesis, Anti-Tumor, and Anti-Metastatic Activity of Novel α-Substituted Hetero-Aromatic Chalcone Hybrids as Inhibitors of Microtubule Polymerization” (Frontiers in Chemistry, 2021).
Where “and” joins values, the source holds several entries; their conditions need not be identical. Identical values can stand only once. Like-named read-outs stand apart in the source and are kept apart here.

How the values were obtained:
tubulin = assay: Tubulin polymerization in vitro (fluorescence); type: biochemical; details: 37°C; read-out: IC50, inhibition of tubulin polymerization
Procedure: Data are presented as the mean ± SD from three independent experiments. **p < 0.01 vs. the vehicle control.
An in vitro assay was performed to monitor the time-dependent polymerization of tubulin into microtubules. The 96-well cell culture plate was incubated at 37°C for 10 min, and test compounds and reference compounds were prepared with a 10× analyte stock solution. Five microliters of 10× analyte stock solution was added to a 96-well plate, and the microplate reader was heated at 37°C for 1 min. Immediately 85 μl of Tubulin Stock was drawn and mixed with the above mixture to prepare the tubulin reaction solution, and 50 μl of the tubulin reaction solution was to each well. The multifunctional microplate reader measured the absorbance, and the measured fluorescence value represents the level of tubulin in the polymerized state in the reaction solution.

[1] = test system: intersegmental vessel (ISV) development, Tg (flk: EGFP) embryos; assay: Anti-angiogenic effect on zebrafish embryos; type: in vivo
Text: Zebrafish embryo is a powerful model to study human diseases, and the transgenic zebrafish labeled with green fluorescent protein (GFP) in endothelial cells are always used to analyze angiogenesis activity in vivo ([Rocke et al., 2009]). Accordingly, we treated the transgenic Tg (flk: EGFP) embryos with different doses of 7m (0.5, 1, 2.5, 5 μΜ), and 30 hpf zebrafish was imaged by fluorescent microscopy to examine the effect on intersegmental vessel (ISV) development. […] When the concentration of 7m was elevated to 2.5 μΜ, the […] effect was more pronounced as evidenced by the 3.5- to 4-fold reduction in the number of SIVs.
The transgenic zebrafish Tg (flk: EGFP) embryos were paired normally and collected into a six-well plate (n = 30/well), then 1 ml of aquaculture water (0.2 g/L distilled water instant sea salt) was added and were raised at 28.5°C. When the zebrafish embryos developed to 12 hpf, the indicated concentrations of 7m were added, and 30 embryos were selected for each concentration gradient and incubated at 28.5°C to 30 hpf. At 30 hpf, the zebrafish embryos were imaged and photographed under a fluorescence microscope to observe the growth of blood vessels in the body, and the number of intersegmental blood vessels (ISV) was recorded.

MCF-7 cells [2] = assay: Wound healing assay; type: cell-based, human; details: 48 h
Procedure: In order to evaluate whether 7m could suppress migration and invasion, the MCF-7 cell culture was performed by wound healing and Transwell Matrigel assay, respectively.
MCF-7 cells and HUVECs cells were grown in 24-well plates at a density of 1 × 10^6 cells per well for 24 h. Scratches were made in confluent monolayers by […] pipette tips. The media containing different concentrations of 7m were added to the Petri dishes. […] The migration distance of cells migrated to the wound area was measured manually.

U937 = assay: Antiproliferative activity, CCK-8 assay; type: cell-based
Method in brief: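 U937 cells in log phase seeded at 8,000/well with compound-containing medium and incubated 72 h at 37 °C, 5% CO2. Proliferation read by CCK-8 dye after a further 3–4 h incubation, against blank-medium wells.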

HepG2 = assay: Antiproliferative activity, SRB assay; type: cell-based, human
Method in brief: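 Cells seeded at 3 × 10^3–4 × 10^3 per well, grown 24 h, then exposed to compounds at various concentrations for 72 h at 37 °C. TCA-fixed cells stained with 0.4% SRB; bound dye dissolved in 10 mM Tris base and OD read at 560 nm.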

MCF-7 cells [3] = assay: Cell cycle analysis, flow cytometry with PI staining; type: cell-based, human; details: for G2/M cells: 24 h; for G0/G1, single runs / G0/G1 AVERAGE / G2/M, single runs / S AVERAGE / S, single runs / G2/M AVERAGE: flowjo raw data
Procedure: It is known that tubulin inhibitors block the cell cycle in the G2/M phase because of microtubule depolymerization and cytoskeleton disruption. Therefore, the effects of 7m on cell cycle progression of MCF-7 cells were analyzed by flow cytometry with PI staining. MCF-7 cells were treated with different concentrations (0, 100, 200, and 400 nM) of compound 7m for 24 h and 200 nM 7m at different times (0, 6, 12, and 24 h), respectively. […] When the concentration was increased to 200 and 400 nM, cells of 47% and 56% G2/M phase arrest were observed, respectively. Similarly, this phenomenon occurred after treatment with 200 nM 7m from 0 to 24 h.
MCF-7 cells were seeded into six-well plates (5 × 10^5 cells/well) and incubated at 37°C in a humidified 5% CO2 incubator for 24 h, and then treated with or without compound 7m at indicated concentrations (100, 200, 400 nM). The collected cells were fixed by adding 70% of ethanol at −20°C for 12 h. The cells were then washed with PBS, incubated with […] of RNase at 37°C for 30 min, and stained with […] of propidium iodide for 15 min, and finally subjected to flow cytometry.

3-(benzofuran-6-yl)-2-methyl-1-(3,4,5-trimethoxyphenyl)prop-2-en-1-one [Compound 7m]
IC50 (tubulin): 12.2 µM
number and length of SIVs vs vehicle control ([1]; 0.5 and 1 μΜ, 30 hpf): slightly reduced
ISVs formations ([1]; doses ≥5 μM): seriously impaired
developmental toxicity in embryos ([1]; doses ≥5 μM): developmental defects were observed
wound healing of MCF-7 cells (migration) (MCF-7 cells [2]): significantly inhibited the wound healing
IC50 (U937; 72 h, triplicate, mean ± SD, read-out: IC50 ± SD, U937): 0.082 ± 0.002 µM
IC50 (U937; supplement raw data of table 2, read-out: IC50(U937)): 0.0816 µM
IC50 (HepG2; 72 h, triplicate, mean ± SD, read-out: IC50 ± SD, HepG2): 0.07 ± 0.001 µM
IC50 (HepG2; supplement raw data of table 2, read-out: IC50(Hepg2)): 0.0705 µM
G2/M cells (MCF-7 cells [3]; 100 nM): 26%
G0/G1, single runs (MCF-7 cells [3]; 100nM): 61.76 and 47.12
G0/G1 AVERAGE (MCF-7 cells [3]; 100nM): 54.44
G2/M, single runs (MCF-7 cells [3]; 100nM): 15.14 and 28.34
S AVERAGE (MCF-7 cells [3]; 100nM): 23.82
S, single runs (MCF-7 cells [3]; 100nM): 23.1 and 24.54
G0/G1, single runs (MCF-7 cells [3]; 200nM dose series): 40.1 and 25.72
G0/G1 AVERAGE (MCF-7 cells [3]; 200nM dose series): 32.91
G2/M, single runs (MCF-7 cells [3]; 200nM dose series): 40.78 and 56.03
S AVERAGE (MCF-7 cells [3]; 200nM dose series): 18.685
S, single runs (MCF-7 cells [3]; 200nM dose series): 19.12 and 18.25
G0/G1, single runs (MCF-7 cells [3]; 200nM, 6h): 55.81 and 61.73
G0/G1 AVERAGE (MCF-7 cells [3]; 200nM, 6h): 58.77
G2/M AVERAGE (MCF-7 cells [3]; 200nM, 6h): 29.28
G2/M, single runs (MCF-7 cells [3]; 200nM, 6h): 36.18 and 22.38
S AVERAGE (MCF-7 cells [3]; 200nM, 6h): 15.51
G0/G1, single runs (MCF-7 cells [3]; 200nM, 12h): 34.65 and 32.01
G0/G1 AVERAGE (MCF-7 cells [3]; 200nM, 12h): 33.33
G2/M AVERAGE (MCF-7 cells [3]; 200nM, 12h): 41.805
G2/M, single runs (MCF-7 cells [3]; 200nM, 12h): 44.73 and 38.88
S AVERAGE (MCF-7 cells [3]; 200nM, 12h): 25.405
S, single runs (MCF-7 cells [3]; 200nM, 12h): 23.93 and 26.88
G2/M cells (MCF-7 cells [3]; 200 nM, dose series (Fig 6A)): 47%
G0/G1, single runs (MCF-7 cells [3]; 200nM, 24h): 6.61 and 3.51
G0/G1 AVERAGE (MCF-7 cells [3]; 200nM, 24h): 5.06
G2/M AVERAGE (MCF-7 cells [3]; 200nM, 24h): 91.725
G2/M, single runs (MCF-7 cells [3]; 200nM, 24h): 93.1 and 90.35
S AVERAGE (MCF-7 cells [3]; 200nM, 24h): 5.79
G0/G1, single runs (MCF-7 cells [3]; 400nM): 16.1 and 15.39
G0/G1 AVERAGE (MCF-7 cells [3]; 400nM): 15.745
G2/M AVERAGE (MCF-7 cells [3]; 400nM): 67.3
G2/M, single runs (MCF-7 cells [3]; 400nM): 66.98 and 67.62
S AVERAGE (MCF-7 cells [3]; 400nM): 16.955
S, single runs (MCF-7 cells [3]; 400nM): 16.92 and 16.99
